pIC50, pKd: −log10 of the molar value. Counter-ions that a name gives are not always drawn.
Legend:
YKL-40 [1] = biological target: T1, YKL-40 (Homo sapiens (Human), UniProt P36222); test: Bio-layer interferometry (BLITz) Kd of biotinylated compounds; assay type: binding; conditions: symbol preceded by asterisk; biotinylated compound on streptavidin biosensor; read-out: YKL-40:4, Kd
Protocol: BLITz system (Sartorius) that used Bio-layer interferometry technology was applied to assess Kd of biotinylated compounds. […] During dehydration process the 10 mM stock of biotinylated compound in DMSO was diluted in MST buffer to final concentration of 0.5 μM. In addition, protein stock of recombinant YKL40 (un-tagged, purified in-house) was also prepared in MST buffer at two concentrations: 200 μM and 400 μM. The dehydrated biosensor was applied on the BLITz system that was followed by 5-step procedure: 1) initial baseline for 30 s with MST buffer in tube, 2) loading of 4 μl of biotinylated compound on drop, 3) baseline for 30 s with MST buffer in tube, 4) association of 4 μl of protein stock at one concentration or MST buffer (negative control), 5) dissociation with MST buffer in tube. The same multi-step measurement was done twice for each protein stock concentration and once for negative control. Kd was measured by the BLITz software based on global fitting using the negative control as a reference.

YKL-40 [2] = biological target: T1, YKL-40; test: YKL-40:4 assay, competitive chitin binding site AlphaScreen; conditions: competition with biotinylated compound 4 (20 nM), YKL-40-histag 2.5 nM
[3] = biological target: YKL-40: heparan sulfate interaction (Homo sapiens (Human), UniProt P36222); test: YKL-40:HS assay, heparan sulfate interference AlphaScreen; assay type: binding; conditions: competition with biotinylated heparan sulphate (60 nM)
YKL-40: heparan sulfate interaction, sequence (P36222 22-383): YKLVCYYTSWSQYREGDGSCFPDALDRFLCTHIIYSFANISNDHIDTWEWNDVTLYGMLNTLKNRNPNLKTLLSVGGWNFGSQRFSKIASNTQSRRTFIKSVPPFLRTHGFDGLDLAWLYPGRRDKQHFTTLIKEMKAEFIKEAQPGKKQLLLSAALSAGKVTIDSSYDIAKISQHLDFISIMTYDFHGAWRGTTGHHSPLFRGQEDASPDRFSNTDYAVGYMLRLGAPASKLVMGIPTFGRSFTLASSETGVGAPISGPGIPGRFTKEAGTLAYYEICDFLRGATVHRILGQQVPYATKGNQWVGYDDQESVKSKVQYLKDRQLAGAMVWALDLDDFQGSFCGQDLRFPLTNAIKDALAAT

T1 sequence (P36222 22-383): as above

Row | pKd (YKL-40 [1]) | pIC50 (YKL-40 [2]) | pIC50 [3] | SMILES
1 |  | > 7.00 | 6.00 to 7.00 | Cc1cnc(N2CCC(N3C[C@H](C)OC[C@@H]3Cc3ccc(Cl)cc3)CC2)s1 [compound 185, (2S,5S)-5-(4-chlorobenzyl)-2-methyl-4-(1-(5-methylthiazol-2-yl)piperidin-4-yl)morpholine 2,2,2-trifluoroacetate]
2 |  | < 4.00 |  | C[C@H]1CN(C2CCN(c3c(F)cccc3F)CC2)[C@@H](Cc2ccc(Cl)cc2)CO1 [compound 123, (2S,5S)-5-(4-chlorobenzyl)-4-(1-(2,6-difluorophenyl)piperidin-4-yl)-2-methylmorpholine 2,2,2-trifluoroacetate]
3 |  | > 7.00 |  | CC(C)[C@H]1CN(C2CCN(c3ccccn3)CC2)[C@@H](Cc2ccc(Cl)cc2)CN1C [compound 62, (2S,5S)-2-(4-chlorobenzyl)-5-isopropyl-4-methyl-1-(1-(pyridin-2-yl)piperidin-4-yl)piperazine 2,2,2-trifluoroacetate]
4 |  | 6.00 to 7.00 |  | C[C@H]1CN(C2CCN(c3ncccc3C#N)CC2)[C@@H](Cc2ccc(Cl)cc2)CO1 [Example 22, 2-(4-((2S,5S)-5-(4-chlorobenzyl)-2-methylmorpholino)piperidin-1-yl)nicotinonitrile 2,2,2-trifluoroacetate]
5 |  | 4.00 to 5.00 |  | C[C@H]1CN(C2CCN(c3ccccn3)C(=O)C2)[C@@H](Cc2ccc(Cl)cc2)CO1 (stereo partly drawn) [compound 85, 4-((2S,5S)-5-(4-chlorobenzyl)-2-methylmorpholino)-1-(pyridin-2-yl)piperidin-2-one 2,2,2-trifluoroacetate]
6 |  | 6.00 to 7.00 | > 7.00 | Cc1ccnc(N2CCC(N3C[C@H](C)OC[C@@H]3Cc3ccc(Cl)cc3)CC2)c1F [compound 112, (2S,5S)-5-(4-chlorobenzyl)-4-(1-(3-fluoro-4-methylpyridin-2-yl)piperidin-4-yl)-2-methylmorpholine 2,2,2-trifluoroacetate]
7 |  | < 4.00 |  | C[C@H]1CN(C2CCN(c3nccc(C(=O)O)c3F)CC2)[C@@H](Cc2ccc(Cl)cc2)CO1 [compound 128, 2-(4-((2S,5S)-5-(4-chlorobenzyl)-2-methylmorpholino)piperidin-1-yl)-3-fluoroisonicotinic acid 2,2,2-trifluoroacetate]

Continued, molecule first:

Row | SMILES | pKd (YKL-40 [1]) | pIC50 (YKL-40 [2]) | pIC50 [3]
8 | O=C(CCCC[C@@H]1SC[C@@H]2NC(=O)N[C@@H]21)NCCOCCOCCOCCOCCOCCOCCOCCOCCOCCOCCOCCOCCC(=O)NC[C@H]1CN(C2CCN(c3ccccn3)CC2)[C@@H](Cc2ccc(Cl)cc2)CO1 [Example 5, N-(((2S,5S)-5-(4-chlorobenzyl)-4-(1-(pyridin-2-yl)piperidin-4-yl)morpholin-2-yl)methyl)-1-(5-((3aS,4S,6aR)-2-oxohexahydro-1H-thieno[3,4-d]imidazol-4-yl)pentanamido)-3,6,9,12,15,18,21,24,27,30,33,36-dodecaoxanonatriacontan-39-amide] | > 7.00 |  | 
9 | CNC(=O)CN1C[C@H](Cc2ccc(Cl)cc2)N(C2CCN(c3ccccn3)CC2)C[C@@H]1CC(C)C [compound 95, 2-((2S,5S)-5-(4-chlorobenzyl)-2-isobutyl-4-(1-(pyridin-2-yl)piperidin-4-yl)piperazin-1-yl)-N-methylacetamide 2,2,2-trifluoroacetate] |  | > 7.00 | > 7.00
10 | CN1C[C@H](Cc2ccc(Cl)cc2)N(C2CCN(c3ccccn3)CC2)C[C@@H]1Cc1ccc(Cl)cc1 [compound 63, (2S,5S)-2,5-bis(4-chlorobenzyl)-1-methyl-4-(1-(pyridin-2-yl)piperidin-4-yl)piperazine 2,2,2-trifluoroacetate] |  | 5.00 to 6.00 | 6.00 to 7.00
11 | CN1C[C@H](Cc2ccc(Cl)cc2)N(C2CCN(c3cc(Cl)ccn3)CC2)C[C@@H]1Cn1ccnc1 [compound 82, (2R,5S)-2-((1H-imidazol-1-yl)methyl)-5-(4-chlorobenzyl)-4-(1-(4-chloropyridin-2-yl)piperidin-4-yl)-1-methylpiperazine hydrochloride] |  | > 7.00 | > 7.00
12 | CNC(=O)CN1C[C@H](Cc2ccc(Cl)cc2)N(C2CCN(c3ccccn3)CC2)C[C@@H]1C(C)C [compound 106, 2-((2S,5S)-5-(4-chlorobenzyl)-2-isopropyl-4-(1-(pyridin-2-yl)piperidin-4-yl)piperazin-1-yl)-N-methylacetamide 2,2,2-trifluoroacetate] |  | > 7.00 | > 7.00
13 | CN1C[C@H](Cc2ccc(Cl)cc2)N(C2CCN(c3cc(Cl)ccn3)CC2)C[C@@H]1CN1CCOCC1 [compound 51, 4-(((2S,5S)-5-(4-chlorobenzyl)-4-(1-(4-chloropyridin-2-yl)piperidin-4-yl)-1-methyl-piperazin-2-yl)methyl)morpholine hydrochloride] |  | > 7.00 | > 7.00
14 | Cc1nc(N2CCC(N3C[C@H](C)OC[C@@H]3Cc3ccc(Cl)cc3)CC2)sc1C [compound 183, (2S,5S)-5-(4-chlorobenzyl)-4-(1-(4,5-dimethylthiazol-2-yl)piperidin-4-yl)-2-methylmorpholine 2,2,2-trifluoroacetate] |  | > 7.00 | > 7.00

From US20230278996A1, “YKL-40 INHIBITORS AND THEIR THERAPEUTIC APPLICATIONS” (Molecure S.A., priority 2022, published 2023)
